Columns and labels:
[1] = tested on: Colo205 (colon); test: In vitro cytotoxicity, 48 h continuous drug exposure; assay type: cell-based, human
Procedure: (§1) In vitro evaluation of cytotoxic activity. The compound 5a, 5b, 5g, 5i and 5j were evaluated for in vitro anticancer activity against nine human tumour cells derived from six cancer types (colon, prostate, oral, lung, cervix and breast cancer) as shown in Table 3. […] Compounds 5a, 5b, 5g, 5i and 5j have been evaluated for their in vitro cytotoxicity in selected human cancer cell lines of colon (Colo205), lung (Hop-62), cervix (SiHa), prostate (DU145, PC3), oral (DWD, HT1080), and breast (MCF7, Zr-75-1) origin. A protocol of 48 h continuous drug exposure has been used and an […] has been used to estimate cell viability or growth. […] Compound 5a, Colo205 cell growth by 83%, DU145 cell growth by 84%, DWD cell growth by 70%, Hop62 cell growth by 87%, HT1080 cell growth by 80%, MCF7 cell growth by 73%, PC3 cell growth by 91%, SiHa cell growth by 67%, Zr-75-1 cell growth by 76%. Compound 5b, Colo205 cell growth by 20%, DU145 cell growth by 64%, DWD cell growth by 70%, Hop62 cell growth by 78%, HT1080 cell growth by 72%, MCF7 cell growth by 69%, PC3 cell growth by 72%, SiHa cell growth by 20%, Zr-75-1 cell growth by 20%. Compound 5g, Colo205 cell growth by 50%, DU145 cell growth by 20%, DWD cell growth by 94%, Hop62 cell growth by 84%, HT1080 cell growth by 94%, MCF7 cell growth by 71%, PC3 cell growth by 86%, SiHa cell growth by 74%, Zr-75-1 cell growth by 72%. Compound 5i, DU145 cell growth by 42%, Hop62 cell growth by 60%, HT1080 cell growth by 70%, Compound 5j, Colo205 cell growth by 44%, DU145 cell growth by 57%, DWD cell growth by 65%, Hop62 cell growth by 53%, HT1080 cell growth by 71%, PC3 cell growth by 81%, SiHa cell growth by 77%.

[2] = tested on: DU145 (prostate); test: as above; assay type: cell-based, human
Procedure: as §1

[3] = tested on: DWD (oral); test: as above; assay type: cell-based, human
Procedure: as §1

[4] = tested on: HT1080 (oral); test: as above; assay type: cell-based, human
Procedure: as §1

[5] = tested on: Hop62 (lung); test: as above; assay type: cell-based, human
Procedure: as §1

[6] = tested on: MCF7 (breast); test: as above; assay type: cell-based, human
Procedure: as §1

[7] = tested on: PC3 (prostate); test: as above; assay type: cell-based, human
Procedure: as §1

[8] = tested on: SiHa (cervix); test: as above; assay type: cell-based, human
Procedure: as §1

[9] = tested on: Zr-75-1 (breast); test: as above; assay type: cell-based, human
Procedure: as §1

[10] = tested on: duplex-form calf thymus DNA (CT-DNA); test: Thermal denaturation studies with CT-DNA; assay type: binding
Procedure: Compounds were subjected to thermal denaturation studies with duplex-form calf thymus DNA (CT-DNA) using an adaptation of a reported procedure. Working solutions in aqueous buffer (10 mM NaH2PO4/Na2HPO4, 1 mM Na2EDTA, pH 7.00+0.01) containing CT-DNA (100 μm in phosphate) and the PBD (20 μm) were prepared by addition of concentrated PBD solutions in DMSO to obtain a fixed [PBD]/[DNA] molar ratio of 1:5. The DNA-PBD solutions were incubated at 37° C. for 0, 18, and 36 h prior to analysis. Samples were monitored at 260 nm using a Beckman DU-7400 spectrophotometer fitted with high performance temperature controller, and heating was applied at 1° C. min−1 in the 40-90° C. range. DNA helix coil transition temperatures (Tm) were obtained from the maxima in the (dA260)/dT derivative plots. Results are given as the mean ±standard deviation from three determinations and are corrected for the effects of DMSO co-solvent using a linear correction term. Drug-induced alterations in DNA melting behaviour are given by: ΔTm=Tm(DNA+PBD)−Tm (DNA alone), where the Tm value for the PBD-free CT-DNA is 69.0±0.01.

[11] = tested on: selected human cancer cell lines; test: In vitro cytotoxicity in selected human cancer cell lines (overall statements); assay type: cell-based; conditions: Table 3
Procedure: as §1

[12] = tested on: sixty human tumour cells; test: NCI in vitro anticancer screen, SRB protein assay, mean graph midpoints; assay type: cell-based; conditions: human tumour cell lines, 48 h continuous drug exposure
Procedure: Biological Activity: some of in vitro biological activity studies were carried out at the National Cancer Institute, Maryland, USA.
5e was evaluated for in vitro anticancer activity against sixty human tumour cells derived from nine cancer types (leukemia, non-small-cell lung, colon, CNS, melanoma, ovarian, prostate, and breast cancer) as shown in (Table 1 and 2). For the compound, dose response curves for each cell line were measured at a minimum of five concentrations at 10 fold dilutions. A protocol of 48 h continuous drug exposure was used and a sulforhodamine B (SRB) protein assay was used to estimate cell viability or growth. The concentration causing 50% cell growth inhibition (GI50), total cell growth inhibition (TGI 0% growth) and 50% cell death (LC50, −50% growth) compared with the control was calculated.

[13] = relative to untreated control cells

COc1cc2c(cc1OCCCCOc1ccc(Cl)cc1C(=O)c1ccccc1)N=C[C@@H]1CCCN1C2=O [Compound 5b, 7-methoxy-8-{4-[2-benzoyl-(4-chlorophenyloxy)butoxy]}-(11aS)-1,2,3,11a-tetrahydro-5H-pyrrolo[2,1-c][1,4]benzodiazepine-5-one]
Activity status in terms of IC50 value ([1]; Colo205, Colon): 32 µg/mL | cell growth by % ([1]; Colo205, relative to untreated control cells): 20% | Activity status in terms of IC50 value ([2]; DU145, Prostate): 35 µg/mL | cell growth by % ([2]; DU145, relative to untreated control cells): 64% | Activity status in terms of IC50 value ([3]; Oral): 30 µg/mL | cell growth by % [3, 13]: 70% | Activity status in terms of IC50 value ([4]; HT1080, Oral): 28 µg/mL | cell growth by % ([4]; HT1080, relative to untreated control cells): 72% | Activity status in terms of IC50 value ([5]; Hop62, Lung): 22 µg/mL | cell growth by % ([5]; Hop62, relative to untreated control cells): 78% | Activity status in terms of IC50 value ([6]; MCF7, Breast): 31 µg/mL | cell growth by % ([6]; MCF7, relative to untreated control cells): 69% | Activity status in terms of IC50 value ([7]; PC3, Prostate): 28 µg/mL | cell growth by % ([7]; PC3, relative to untreated control cells): 72% | Activity status in terms of IC50 value ([8]; Cervix): >80 µg/mL | cell growth by % [8, 13]: 20% | Activity status in terms of IC50 value ([9]; Zr-75-1, Breast): >80 µg/mL | cell growth by % ([9]; Zr-75-1, relative to untreated control cells): 20% | ΔTm after incubation at 37° C. for 0 h ([10]; [PBD]:[DNA] 1:5, CT-DNA 100 μM, ligand 20 μM, pH 7.00, 0 h): 1.5 °C | ΔTm after incubation at 37° C. for 18 h ([10]; [PBD]:[DNA] 1:5, CT-DNA 100 μM, ligand 20 μM, pH 7.00, 18 h): 2.1 °C | ΔTm after incubation at 37° C. for 36 h ([10]; [PBD]:[DNA] 1:5, CT-DNA 100 μM, ligand 20 μM, pH 7.00, 36 h): 2.6 °C | course of ΔTm over 0 hr, 18 hr and 36 hr (in words) ([10]; incubation at 37° C.): gradually increased | cytotoxicity against some cancer cell lines (in words) [11]: promising cytotoxicity

COc1cc2c(cc1OCCCCCOc1c(C)cc(Cl)cc1C(=O)c1ccccc1)N=C[C@@H]1CCCN1C2=O [Compound 5f, 7-methoxy-8-{3-[2-benzoyl-(4-chloro-6-methylphenyloxy)pentoxy]}-(11aS)-1,2,3,11a-tetrahydro-5H-pyrrolo[2,1-c][1,4]benzodiazepine-5-one]
Log10GI50 mean graph midpoint (MG_MID) [12]: −6.47 | Log10LC50 mean graph midpoint (MG_MID) [12]: −4.89 | Log10TGI mean graph midpoint (MG_MID) [12]: −5.24

From patent US7528128B2, “Pyrrolo[2,1-C][1,4]benzodiazepine hybrids and a process for the preparation thereof” (Council of Scientific & Industrial Research, priority 2006, dated 2009)
